Source: patent US10722582B2, “Targeted antimicrobial photodynamic therapy” (Purdue Research Foundation, priority 2018, dated 2020)

Key:
[1] = Photophysical measurements (absorption, fluorescence quantum yield); assay type: physicochemical
From the text: Hemin chloride and all reagents were obtained from commercial sources, and used as received unless otherwise noted. Dimethyl sulfoxide (DMSO) was distilled over CaH2 under reduced pressure. Deionized water was obtained from an ultrafiltration system (Milli-Q, Millipore) with a resistivity >18 MΩ·cm, and passed through a 0.22-μm filter to remove particulate matter. Absorption spectra were collected on a Varian Cary50 spectrometer; fluorescence emission data were collected on a Cary Eclipse fluorimeter with a gate time of 5 ms. ^1H NMR spectra were obtained in CDCl3 or DMSO-d6 using a Varian 800-MHz spectrometer; all chemical shifts (δ) reported in ppm.
The quantum yield of Ga-PpIX in deaerated DMSO was determined to be 6.3%, using Ru(II)(bipy)3Cl2 in aerated acetonitrile as a standard.

CSHR-expressing bacteria = experiment: Bacterial uptake of GaPpIX, time to saturation; assay type: cell-based
Protocol: Bacteria were cultured and assayed in iron-deficient media unless otherwise noted. A stock solution of Ga-PpIX (14.6 μM) was prepared by dispersing 5 mg in 1 mL of 10% DMSO in PBS for 10 minutes in an ultrasonic cleaning bath protected from light, followed by filtration and 10× dilution in PBS just prior to use. Bacterial suspensions (0.5 mL) were treated with freshly prepared solutions of PpIX derivatives for specified periods (5-15 min), then harvested by centrifugation at 5.2 g for 5 minutes, redispersed twice in 0.5 mL deionized water, and centrifuged a third time. A 10-μL aliquot of concentrated bacteria was deposited onto a glass slide and dried in air for 20 min, then imaged by fluorescence microscopy as described above. For details on fluorescence image processing and quantitative analysis, see Supporting Information.
Darkfield and fluorescent images were acquired in succession, with the former used to map regions of interest (ROIs) by tracing the outlines of bacteria (FIG. 8). Three images were acquired for each sample; in each case, the tracing map was overlaid onto the fluorescence image to calculate pixel intensities within each ROI, using the mean pixel intensity for quantitative analysis. […]

[2] = system: four clinical isolates of MRSA; experiment: aPDI with CFL irradiation, summary over MRSA isolates; assay type: cell-based, Staphylococcus aureus
Protocol: In all cases, we observed potent aPDI with bactericidal activities at 1-5 μM (Table 1). The consistent response to Ga-PpIX treatment is encouraging, as variable efficacy between strains is a known problem in antimicrobial photodynamic therapy (Nakonieczna, J. et al., Photodiagn. Photodyn. Ther. 2012, 9, 359-361). […] We note that PpIX is already approved as a photosensitizer for topical treatment of several skin diseases, but its utility is limited by poor photostability.
A 20-W compact fluorescent lightbulb (CFL; Sunlite SL20/BLB) housed in an ellipsoidal reflector dome was used for aPDI, at an emission wavelength at 406 nm and a mean power density of 12.4 mW/cm^2 (after applying a 408-nm shortpass filter). Antimicrobial assays were performed on planktonic bacteria at 10^7 cfu/mL with variable exposure times to CFL irradiation, followed by plating on agar and incubation at 37° C. In a typical experiment, bacterial suspensions were transferred into 96-well plates then treated with 100-μL aliquots of Ga-PpIX or PpIX solution, with final concentrations ranging from 320 to 0.31 μg/mL, followed immediately with CFL irradiation for 5 to 15 minutes. […] Bacterial counts were determined by the drop-plate method using TS-agar plates, and reported in colony-forming units per milliliter (cfu/mL).

HEK cells = experiment: Cytotoxicity against HEK cells; conditions: read-out: IC50 (cytotoxicity)
S. aureus = experiment: aPDI with 405-nm LED bar, summary over strains; assay type: cell-based, Staphylococcus aureus; conditions: 10 seconds, 405-nm light-emitting diode bar (99 mW/cm^2), fluence about 1 J/cm^2
Protocol: (§1) Antibacterial activity assay general protocol: Used LED light to test conditions. Bacteria were grown in TS broth, followed by 3 mM bipyridine in TS broth until log phase. Bacteria were then diluted with PBS, to OD 0.1 (˜10^) and then to ˜10^7 cfu/mL. 100 uL of bacteria were placed in 96 well plates with the appropriate GaPpIX concentration. 2× serial dilutions were then done to obtain other GaPpIX concentrations. Each concentration was done in triplicate. Bacteria were left incubating and irradiating for different amount of times at different light powers or left in the dark. 10× Serial dilutions were done and bacteria were plated for colony counting using the drop-plate technique. Colonies were counted after 24 hours. As reported herein, a 3-log reduction equals measurable antimicrobial action; a 6-log reduction equals total eradication.

MRSA386 = experiment: Antibacterial activity assay with LED light; assay type: cell-based, Staphylococcus aureus
Protocol: as §1
(§2) Stock solution preparation (AVM-3-36, 10 nm AgNP). Prepared a solution of (AVM-2-273) GaPpIX-apoHb 1 mg/mL in MP H2O, deaerated. Took 10 mL of 10 nm AgNPs, centrifuged at 900 G for 5 min (Beckman, 3100 RPM), took supernantant and added 200 uL of GaPpIXHb. After overnight, centrifuged 3000 RPM g for 5 minutes (Beckman). Took supernantant and centrifuged using a 100 K CentriCon tube at 4000 RPM for 5 minutes, 3×. Added 15 mM borate buffer to NPs. Based on calibration curve, the stock solution is 1.94 ug/mL AgNP, so stock: 79 μg/mL AgNP, 10.37 μg/mL GaPpIXHb, 0.446 μg/mL GaPpIX (refer to AVM-2-293A and AVM-3-3).
(§3) The following antibacterial activity measurements were assayed in the presence of AgNP.

MRSA385 = experiment: Antibacterial activity assay with LED light; assay type: cell-based, Staphylococcus aureus
Protocol: as §1, §2, §3

MRSA387 = experiment: Antibacterial activity assay with LED light; assay type: cell-based, Staphylococcus aureus
Protocol: as §1, §2, §3

MRSA383 = experiment: Antibacterial activity assay with LED light; assay type: cell-based, Staphylococcus aureus
Protocol: as §1, §2, §3

[3] = system: S. aureus and clinical isolates of MRSA; experiment: aPDI with CFL irradiation, summary over strains; assay type: cell-based, Staphylococcus aureus; conditions: 15 minutes of irradiation, compact fluorescence lightbulb (λmax 406 nm, 12.4 mW/cm^2)
Protocol: A 20-W compact fluorescent lightbulb (CFL; Sunlite SL20/BLB) housed in an ellipsoidal reflector dome was used for aPDI, at an emission wavelength at 406 nm and a mean power density of 12.4 mW/cm^2 (after applying a 408-nm shortpass filter). Antimicrobial assays were performed on planktonic bacteria at 10^7 cfu/mL with variable exposure times to CFL irradiation, followed by plating on agar and incubation at 37° C. In a typical experiment, bacterial suspensions were transferred into 96-well plates then treated with 100-μL aliquots of Ga-PpIX or PpIX solution, with final concentrations ranging from 320 to 0.31 μg/mL, followed immediately with CFL irradiation for 5 to 15 minutes. The irradiated bacteria were plated onto agar in serial tenfold dilutions (10^7-10^1 cfu/mL); controls included one set of wells without photosensitizer, and one set of wells with photosensitizer but without 15 min irradiation, prior to plating (dark toxicity). Bacterial counts were determined by the drop-plate method using TS-agar plates, and reported in colony-forming units per milliliter (cfu/mL).

With Ga(III)-protoporphyrin [Ga-PpIX (1)] the “molar extinction coefficient ε” value ([1]; DMSO, λmax=410 nm, 0.4-10 μM) was 154000 M⁻¹ cm⁻¹, the fluorescence quantum yield ([1]; deaerated DMSO, Ru(II)(bipy)3Cl2 in aerated acetonitrile as standard) was 6.3% and the “time to saturation of uptake” value (CSHR-expressing bacteria) was “under 15 minutes”. For the same substance, the “bactericidal activities (aPDI)” value [2] was 1 to 5 µM, the IC50 (HEK cells) was greater than 10 µM and the “GaPpIX concentration showing aPDI efficacy” value (S. aureus) was 0.06 to 0.12 µM. The “concentration for 3-log reduction” value (MRSA386) was 118 nM, the “concentration for 6-log reduction” value (MRSA386) was 235 nM and the “concentration for 3-log reduction” value (MRSA385) was 89 nM. The “concentration for 6-log reduction” value (MRSA385) was 470 nM, the “concentration for 3-log reduction” value (MRSA387) was 59 nM and the “concentration for 6-log reduction” value (MRSA387) was 1900 nM. The “concentration for 3-log reduction” value (MRSA383) was 59 nM, the “concentration for 6-log reduction” value (MRSA383) was 118 nM and the “GaPpIX concentration for 3-log reduction by aPDI” value [3] was 0.5-4.5 μM.
